Measured values as given in ChEMBL document CHEMBL4308841, “Synthesis, in vitro antiproliferative activity, and kinase inhibitory effects of pyrazole-containing diarylureas and diarylamides” (Eur J Med Chem, 2018).

Key:
[1] = tested on: K562; assay: Growth inhibition of human K562 cells assessed as cell growth at 1 uM incubated for 48 hrs by sulforhodamine B assay relative to control; type: functional; conditions: K562, 48 h, read-out: Activity
[2] = tested on: BT-549; assay: Growth inhibition of human BT549 cells assessed as cell growth at 0.1 uM incubated for 48 hrs by sulforhodamine B assay relative to control; type: functional; conditions: BT-549, 48 h, read-out: Activity
[3] = tested on: NCI-H322M; assay: Growth inhibition of human NCI-H322M cells incubated for 48 hrs by sulforhodamine B assay; type: functional, cell-based
[4] = tested on: SNB-19; assay: Growth inhibition of human SNB19 cells incubated for 48 hrs by sulforhodamine B assay; type: functional, cell-based; conditions: SNB-19, 48 h
[5] = tested on: NCI-H522; assay: Growth inhibition of human NCI-H522 cells assessed as cell growth at 0.1 uM incubated for 48 hrs by sulforhodamine B assay relative to control; type: functional; conditions: NCI-H522, 48 h, read-out: Activity
[6] = tested on: Malme-3M; assay: Growth inhibition of human MALME-3M cells assessed as cell growth at 0.01 uM incubated for 48 hrs by sulforhodamine B assay relative to control; type: functional; conditions: read-out: Activity
[7] = tested on: SK-MEL-2; assay: Growth inhibition of human SK-MEL-2 cells assessed as cell growth at 0.01 uM incubated for 48 hrs by sulforhodamine B assay relative to control; type: functional; conditions: SK-MEL-2, 48 h, read-out: Activity
[8] = tested on: SN12C; assay: Growth inhibition of human SN12C cells assessed as cell growth at 1 uM incubated for 48 hrs by sulforhodamine B assay relative to control; type: functional; conditions: read-out: Activity
[9] = tested on: MOLT-4; assay: Growth inhibition of human MOLT4 cells assessed as cell growth at 100 uM incubated for 48 hrs by sulforhodamine B assay relative to control; type: functional; conditions: MOLT-4, 48 h, read-out: Activity
[10] = tested on: SK-OV-3; assay: Growth inhibition of human SKOV3 cells assessed as cell growth at 1 uM incubated for 48 hrs by sulforhodamine B assay relative to control; type: functional; conditions: SK-OV-3, 48 h, read-out: Activity
[11] = tested on: Hs-578T; assay: Growth inhibition of human Hs578T cells assessed as cell growth at 0.01 uM incubated for 48 hrs by sulforhodamine B assay relative to control; type: functional; conditions: read-out: Activity
[12] = tested on: NCI-H23; assay: Growth inhibition of human NCI-H23 cells incubated for 48 hrs by sulforhodamine B assay; type: functional, cell-based; conditions: NCI-H23, 48 h
[13] = tested on: KM12; assay: Growth inhibition of human KM12 cells assessed as cell growth at 1 uM incubated for 48 hrs by sulforhodamine B assay relative to control; type: functional; conditions: KM12, 48 h, read-out: Activity
[14] = tested on: MDA-MB-435; assay: Growth inhibition of human MDA-MB-435 cells assessed as cell growth at 0.1 uM incubated for 48 hrs by sulforhodamine B assay relative to control; type: functional; conditions: MDA-MB-435, 48 h, read-out: Activity
[15] = tested on: HL-60(TB); assay: Growth inhibition of human HL-60(TB) cells assessed as cell growth at 1 uM incubated for 48 hrs by sulforhodamine B assay relative to control; type: functional; conditions: HL-60, 48 h, read-out: Activity
[16] = tested on: NCI/ADR-RES; assay: Growth inhibition of human NCI/ADR-RES cells incubated for 48 hrs by sulforhodamine B assay; type: functional, cell-based
[17] = tested on: RPMI-8226; assay: Growth inhibition of human RPMI8226 cells assessed as cell growth at 100 uM incubated for 48 hrs by sulforhodamine B assay relative to control; type: functional; conditions: RPMI-8226, 48 h, read-out: Activity
[18] = tested on: SK-MEL-28; assay: Growth inhibition of human SK-MEL-28 cells assessed as cell growth at 0.01 uM incubated for 48 hrs by sulforhodamine B assay relative to control; type: functional; conditions: SK-MEL-28, 48 h, read-out: Activity
[19] = tested on: LOX IMVI; assay: Growth inhibition of human LOXIMVI cells assessed as cell growth at 100 uM incubated for 48 hrs by sulforhodamine B assay relative to control; type: functional; conditions: read-out: Activity
[20] = tested on: HL-60(TB); assay: Growth inhibition of human HL-60(TB) cells assessed as cell growth at 100 uM incubated for 48 hrs by sulforhodamine B assay relative to control; type: functional; conditions: HL-60, 48 h, read-out: Activity
[21] = tested on: MDA-MB-231; assay: Growth inhibition of human MDA-MB-231 cells assessed as cell growth at 1 uM incubated for 48 hrs by sulforhodamine B assay relative to control; type: functional; conditions: MDA-MB-231, 48 h, read-out: Activity
[22] = tested on: Malme-3M; assay: Growth inhibition of human MALME-3M cells assessed as cell growth at 100 uM incubated for 48 hrs by sulforhodamine B assay relative to control; type: functional; conditions: read-out: Activity
[23] = tested on: SF-539; assay: Growth inhibition of human SF539 cells assessed as cell growth at 0.1 uM incubated for 48 hrs by sulforhodamine B assay relative to control; type: functional; conditions: SF-539, 48 h, read-out: Activity
[24] = tested on: RPMI-8226; assay: Growth inhibition of human RPMI8226 cells incubated for 48 hrs by sulforhodamine B assay; type: functional, cell-based; conditions: RPMI-8226, 48 h
[25] = tested on: U-251; assay: Growth inhibition of human U251 cells assessed as cell growth at 0.1 uM incubated for 48 hrs by sulforhodamine B assay relative to control; type: functional; conditions: U-251, 48 h, read-out: Activity
[26] = tested on: T47D; assay: Growth inhibition of human T47D cells assessed as cell growth at 1 uM incubated for 48 hrs by sulforhodamine B assay relative to control; type: functional; conditions: read-out: Activity
[27] = tested on: PC-3; assay: Growth inhibition of human PC3 cells assessed as cell growth at 0.01 uM incubated for 48 hrs by sulforhodamine B assay relative to control; type: functional; conditions: PC-3, 48 h, read-out: Activity
[28] = tested on: M14; assay: Growth inhibition of human M14 cells incubated for 48 hrs by sulforhodamine B assay; type: functional, cell-based; conditions: M14, 48 h
[29] = tested on: UACC-62; assay: Growth inhibition of human UACC62 cells assessed as cell growth at 1 uM incubated for 48 hrs by sulforhodamine B assay relative to control; type: functional; conditions: UACC-62, 48 h, read-out: Activity
[30] = read-out: LC50 (the source's name)
[31] = read-out: pLC50 (the source's name) (converted)

Structure (SMILES): COc1cc(Cl)cc(-c2nn(-c3cccc(NC(=O)Nc4ccc(Cl)c(C(F)(F)F)c4)c3)cc2-c2ccncc2)c1
- growth at 1 µM [1]: 35%
- growth at 0.1 µM [2]: 99%
- GI50 ([3]; read-out: GI50): 3.38 µM
- CC50 [3, 30]: > 100 µM
- TGI ([3]; read-out: TGI): 24 µM
- GI50 ([3]; read-out: pGI50 (converted)): 3.39 µM
- CC50 [3, 31]: > 100 µM
- TGI ([3]; read-out: pTGI (converted)): 25.1 µM
- GI50 ([4]; read-out: GI50): 2.93 µM
- CC50 [4, 30]: > 100 µM
- TGI ([4]; read-out: TGI): 17.5 µM
- GI50 ([4]; read-out: pGI50 (converted)): 1.17 µM
- CC50 [4, 31]: > 100 µM
- TGI ([4]; read-out: pTGI (converted)): 17.8 µM
- growth at 0.1 µM [5]: 77%
- growth at 0.01 µM [6]: 94%
- growth at 0.01 µM [7]: 102%
- growth at 1 µM [8]: 63%
- growth at 100 µM [9]: -28%
- growth at 1 µM [10]: 100%
- growth at 0.01 µM [11]: 95%
- GI50 ([12]; read-out: GI50): 1.36 µM
- LC50 ([12]; read-out: LC50): > 100 µM
- TGI ([12]; read-out: TGI): 62.3 µM
- GI50 ([12]; read-out: pGI50 (converted)): 1.35 µM
- LC50 ([12]; read-out: pLC50 (converted)): > 100 µM
- TGI ([12]; read-out: pTGI (converted)): 6.17 µM
- growth at 1 µM [13]: 33%
- growth at 0.1 µM [14]: 93%
- growth at 1 µM [15]: 72%
- GI50 ([16]; read-out: GI50): 1.77 µM
- CC50 [16, 30]: > 100 µM
- TGI ([16]; read-out: TGI): 11.5 µM
- GI50 ([16]; read-out: pGI50 (converted)): 1.78 µM
- CC50 [16, 31]: > 100 µM
- TGI ([16]; read-out: pTGI (converted)): 5.89 µM
- growth at 100 µM [17]: -32%
- growth at 0.01 µM [18]: 98%
- growth at 100 µM [19]: -34%
- growth at 100 µM [20]: -22%
- growth at 1 µM [21]: 69%
- growth at 100 µM [22]: -35%
- growth at 0.1 µM [23]: 91%
- IC50 [24]: 0.4 µM
- GI50 ([24]; read-out: GI50): 0.402 µM
- CC50 [24, 30]: > 100 µM
- TGI ([24]; read-out: TGI): 20.7 µM
- GI50 ([24]; read-out: pGI50 (converted)): 0.398 µM
- CC50 [24, 31]: > 100 µM
- TGI ([24]; read-out: pTGI (converted)): 2.09 µM
- growth at 0.1 µM [25]: 92%
- growth at 1 µM [26]: 58%
- growth at 0.01 µM [27]: 94%
- GI50 ([28]; read-out: GI50): 1.33 µM
- CC50 [28, 30]: 0.05 µM
- TGI ([28]; read-out: TGI): 34.7 µM
- GI50 ([28]; read-out: pGI50 (converted)): 1.32 µM
- CC50 [28, 31]: 9.12 µM
- TGI ([28]; read-out: pTGI (converted)): 8.51 µM
- growth at 1 µM [29]: 82%
